Test results published in US5364944A, “Substituted benzoylbenzene-, biphenyl- and 2-oxazole- alkanoic acid compounds” (American Home Products Corporation, priority 1993, dated 1994).
pIC50: −log10 of the molar value.

Columns and labels:
[1] = tested on: biosynthesis of LTB4 by isolated human neutrophils; experiment: Inhibition of LTB4 biosynthesis by isolated human neutrophils (PMN); format: cell-based; conditions: A23187 stimulated human PMN; for inhibition at 2.5 µM: Neutrophil, read-out: % Inhibition of LTB4 Synthesis
Protocol: The ability of the compounds of the invention to inhibit the biosynthesis of LTB4 by isolated human neutrophils is evaluated in the following assay, which is carried out in this manner.
A leukocyte enriched blood sample obtained from a healthy donor is procured by leukophoresis using a Haemonetics model 30+ blood processor (Biological Specialties, Inc., Lansdale, Pa.). The top "platelet-rich" layer is removed after a low speed spin (35×g, 15 min, 25° C.) of the sample. The remaining cell suspension is centrigued (400×g, 10 min, 25° C.) to sediment the remaining cells. The supernatant is discarded and the cell pellet resuspended in 120 ml HBSS (without Ca^++ /Mg++). The cell suspension is subjected to ficoll-hypaque sedimentation (Histopaque 1077, 400×g, 30 min, 25° C.). Contaminating erythrocytes are lysed by hypotonic shock (1 min). The cells are then washed once with 40 ml of HBSS and resuspended with HBS S (without Ca^++ /Mg^++) to a concentration of 2.5×10^7 cells/ml for further use. Greater than 95% purity is obtained as assessed by microscopic examination.
One ml of human PMN (2.5×10^7 cells/ml) is incubated with vehicle or drugs (10 μl) for 10 min at 30° C. After preincubation, an equal volume of HBSS (1 ml) containing 2.4 mM CaCl2, 6 μM calcium ionophore A23187 and 50 μCi[^3 H]-acetate is then incubated at 30° C. for 15 minutes. An aliquot (100 μl) of the reaction mixture is taken out and mixed with 900 μl of 15% ethanol. LTB4 is extracted by using solid phase extraction on reverse phase C18 columns to remove excess [^3 H]-acetate and PAF. The C18 column is prewashed once with 2 ml of ethanol and water. The sample aliquot is acidified with 0.1 N HCl to pH3 before applying to the column. The column is then washed with 2 ml of water followed by 2 ml of 15% ethanol and 2 ml of petroleum ether to remove excess labeled acetate. The sample is eluted with 2 ml of ethyl acetate. The collected samples are dried with nitrogen and resuspended in 0.5 ml RIA buffer. The quantity of LTB4 in the sample is obtained from RIA determination.
Data presented are the mean +/- s.d. of the values relative to control A23187 stimulated cells for each experiment assayed in triplicate. Percent inhibition when used is calculated as:
% Inhibition=100-[(×.div.Control )×100]
Dose response analysis is performed by non-linear regression analysis for curve fitting and IC50 determination.

LTB4 = experiment: Reverse passive Arthus pleurisy assay, inflammatory mediator release: LTB4; format: in vivo, rat (male Lewis); conditions: standard drugs; for % Inh LTB4: 4 mg/kg p.o.
Protocol: (§1) The compounds of the invention are further tested in the reverse passive Arthus pleurisy assay to evaluate their effectiveness in inflammatory mediator release and/or the fluid and cellular phases of an inflammatory response.
(§2) This assay is carried out as follows:
A reverse passive Arthus reaction is induced in the pleural cavity of male Lewis rats (150-200 g; fasted overnight prior to use) by the intravenous administration of bovine serum albumin (BSA; 4 mg/0.2 ml) followed 30 minutes later by the injection of rabbit anti-BSA (1 mg/0.2 ml; lyophilized IgG fraction; Organon Teknika, West Chester, Pa.) into the right pleural space under halothane anesthesia. […] Animals are sacrificed at either the time of peak eicosanoid production (i.e. 5 minutes after anti-BSA for immunoreactive TxB2 10 minutes for immunoreactive LTB4, 20 minutes for immunoreactive LTC4) or at the time of peak neutrophil infiltration (4 hours after anti-BSA) by CO2 inhalation. The pleural cavity is then exposed, the fluid exudate removed by gentle vacuum aspiration and the volume of exudate is recorded. For the determination of cellular infiltration, the pleural cavity is rinsed with 3 ml of 0.1% EDTA in sterile saline, and the recovered wash is pooled with the exudate. Cell number is determined on a model ZBI Coulter counter. For determination of eicosanoid production, undiluted pleural exudate is microfuged and the supernatant is extracted with ethanol (8-10 times volume). Extracts are either stored at -20° C., or are evaporated to dryness under a stream of N2 and reconstituted in radioimmunoassay (RIA) buffer.
Eicosanoids are quantitated by RIA according to the procedure specified by the RIA kit manufacturer (Advanced Magnetics, Cambridge, Mass.). Briefly, 100 μl of ^3 H-labeled eicosanoid and 100 μl of specific antibody are sequentially added to 100 μl of extracted pleural exudate in BGG -phosphate buffer which contains 0.01 M phosphate, 0.1% bovine gamma globulin and 0.1% sodium azide at pH 7.0. Antibody-bound eicosanoid is separated from unbound eicosanoid by the addition of 750 μl of dextran (0.4%)-coated charcoal (0.4% Norit A) containing 0.1% sodium azide. The mixture is centrifuged at 2000 RPM at 5° C. for 15 minutes to pellet the charcoal and adsorbed unbound eicosanoid. Antibody-bound labeled eicosanoid is quantitated by counting in a liquid scintillation counter, and is correlated to concentration by a standard curve.
(§3) Inflammatory cells are expressed as 10^6 cells/ml, pleural exudate is expressed as ml of fluid, and the amount of eicosanoids in the pleural cavity is expressed as ng/ml of exudate. Mean ±S.E.M. is determined for each group. Percent inhibition (% I) of cell number, exudate volume and eicosanoid production is calculated for vehicle-treated control groups, and the responses in drug-treated rats are then expressed as the mean % I of the control. […] Exp. Ther., 96, 99-113 (1949).

TxB2 = experiment: Reverse passive Arthus pleurisy assay, inflammatory mediator release: TxB2; format: in vivo, rat (male Lewis); conditions: standard drugs; for ED50 TxB2: p.o., inflammatory mediator release, 5 min
Protocol: as §1, §2
A reverse passive Arthus reaction is induced in the pleural cavity of male Lewis rats (150-200 g; fasted overnight prior to use) by the intravenous administration of bovine serum albumin (BSA; 4 mg/0.2 ml) followed 30 minutes later by the injection of rabbit anti-BSA (1 mg/0.2 ml; lyophilized IgG fraction; Organon Teknika, West Chester, Pa.) into the right pleural space under halothane anesthesia. Drugs or vehicle (0.5% Tween-80) control are administered orally in a volume of 1 ml/100 g body weight at 1 hour prior to the anti-BSA. Animals are sacrificed at either the time of peak eicosanoid production (i.e. 5 minutes after anti-BSA for immunoreactive TxB2 10 minutes for immunoreactive LTB4, 20 minutes for immunoreactive LTC4) or at the time of peak neutrophil infiltration (4 hours after anti-BSA) by CO2 inhalation. The pleural cavity is then exposed, the fluid exudate removed by gentle vacuum aspiration and the volume of exudate is recorded. […] Cell number is determined on a model ZBI Coulter counter. […]
Eicosanoids are quantitated by RIA according to the procedure specified by the RIA kit manufacturer (Advanced Magnetics, Cambridge, Mass.). […] Antibody-bound labeled eicosanoid is quantitated by counting in a liquid scintillation counter, and is correlated to concentration by a standard curve.
Inflammatory cells are expressed as 10^6 cells/ml, pleural exudate is expressed as ml of fluid, and the amount of eicosanoids in the pleural cavity is expressed as ng/ml of exudate. Mean ±S.E.M. is determined for each group. Percent inhibition (% I) of cell number, exudate volume and eicosanoid production is calculated for vehicle-treated control groups, and the responses in drug-treated rats are then expressed as the mean % I of the control. […]

[2] = tested on: fluid and cellular phases of an inflammatory response; experiment: Reverse passive Arthus pleurisy assay, pleural inflammation (fluid exudation, cellular influx); format: in vivo, rat (male Lewis); conditions: for ED30 Fluid Exudation: p.o., pleural inflammation; for ED30 Fluid Exudation / % Inh Cellular Influx: standard drugs; for % Inh Cellular Influx: 8 mg/kg p.o.
Protocol: as §1, §2
A reverse passive Arthus reaction is induced in the pleural cavity of male Lewis rats (150-200 g; fasted overnight prior to use) by the intravenous administration of bovine serum albumin (BSA; 4 mg/0.2 ml) followed 30 minutes later by the injection of rabbit anti-BSA (1 mg/0.2 ml; lyophilized IgG fraction; Organon Teknika, West Chester, Pa.) into the right pleural space under halothane anesthesia. Drugs or vehicle (0.5% Tween-80) control are administered orally in a volume of 1 ml/100 g body weight at 1 hour prior to the anti-BSA. Animals are sacrificed at either the time of peak eicosanoid production (i.e. 5 minutes after anti-BSA for immunoreactive TxB2 10 minutes for immunoreactive LTB4, 20 minutes for immunoreactive LTC4) or at the time of peak neutrophil infiltration (4 hours after anti-BSA) by CO2 inhalation. The pleural cavity is then exposed, the fluid exudate removed by gentle vacuum aspiration and the volume of exudate is recorded. For the determination of cellular infiltration, the pleural cavity is rinsed with 3 ml of 0.1% EDTA in sterile saline, and the recovered wash is pooled with the exudate. Cell number is determined on a model ZBI Coulter counter. For determination of eicosanoid production, undiluted pleural exudate is microfuged and the supernatant is extracted with ethanol (8-10 times volume). Extracts are either stored at -20° C., or are evaporated to dryness under a stream of N2 and reconstituted in radioimmunoassay (RIA) buffer.
as §3

[3] = tested on: synthesis of the arachidonic acid cyclooxygenase oxidation product PGE2 (rat PMN); experiment: Inhibition of cyclooxygenase product PGE2 synthesis by rat PMN; format: cell-based; conditions: negative values denote a potentiation of cyclooxygenase
Protocol: In this assay, the procedure of Example 41 is carried out as described. However, in order to determine cyclooxygenase activity, the samples are cochromatographed with authentic reference [^3 H]-PGE2.

[4] = tested on: 5-lipoxygenase in human whole blood; experiment: Inhibition of 5-lipoxygenase in human whole blood (LTB4); format: cell-based
Protocol: The assay of this Example measures the ability of the compounds tested to inhibit 5-lipoxygenase in human whole blood.
as §2
Blood is obtained in 50-100 ml quantities from male donors. White blood cell counts and differentials are made. Two ml of blood are placed in a 15 ml polypropylene test tube. Compounds are solubilized in dimethylsulfoxide and diluted 1:10 in 10% bovine serum albumin in phosphate buffered saline, pH 7.4 resulting in a final dimethylsulfoxide concentration of 0.1% in the blood. Then, compounds are added to the blood in a shaking water bath at 37° C. for 10 minutes prior to the addition of 30 μM calcium ionophore (A23187; Sigma). After ionophore administration, whole blood samples are mixed and incubated for 20 minutes at […] in a shaking water bath. Incubation is terminated by placing samples in an ice bath and immediately adding ethylene glycol-bis-(β-aminoethyl ether)-N,N,N',N'-tetraacetic acid (10 mM). Samples are mixed and centrifuged at 1200×g for 15 minutes at 4° C. Preparation of samples for evaluation by RIA or ELISA is carried out by the following protocol. Plasma is removed from sample tubes, placed in 15 ml polypropylene test tubes containing 8 ml methanol, and then vortexed to precipitate protein. Samples are stored at -70° C. overnight. The next day, samples are centrifuged at 200×g for 15 minutes at 4° C. to pellet the precipitate. Samples are dried in a Savant speed vac concentrator, reconstituted to original volume with ice cold RIA or ELISA buffer, and stored at -70° C. until assayed. The assay for eicosanoids (LTB4, TxB2, and PGE2) is performed as described by the manufacturer of the [^3 H]-RIA kit or ELISA kit (LTB4 -Amersham, TxB2 and PGE2 - Caymen Chemical).
The total eicosanoid level in 2 ml of blood is calculated and reported as ng/10^6 neutrophils. […] Drug effects are expressed as percent change from control values.
Compounds tested in vitro are solubilized in dimethylsulfoxide and diluted 1:10 in 10% bovine serum albumin in phosphate buffer saline resulting in a final dimethylsulfoxide concentration of 0.1% in the blood.

CC(c1cc2ccccc2s1)N(O)C(N)=O (stereo not shown) [A-64,077, reference compound]
inhibition at 2.5 µM [1]: 75.8%

CN=C1CCN(c2cccc(C(F)(F)F)c2)N1 [BW540C, reference compound]
ED50 LTB4 (LTB4; p.o., inflammatory mediator release, 10 min): 30 mg/kg | ED50 TxB2 (TxB2): 19 mg/kg

C[C@@H]1C[C@H]2[C@@H]3CCC4=CC(=O)C=C[C@]4(C)[C@@]3(F)[C@@H](O)C[C@]2(C)[C@@]1(O)C(=O)CO [Dexamethasone]
ED30 Fluid Exudation [2]: 0.05 mg/kg

O=C(O)Cc1cccc(C(=O)c2ccc(OCc3ccc4ccccc4n3)cc2)c1 [Example 3, 3-[4-(2-Quinolinylmethoxy)benzoyl]benzene acetic acid]
inhibition at 0.5 µM ([3]; at 0.5 μM): -8% | inhibition at 10 µM ([3]; at 10 μM): 8%

O=C(O)Cc1ccc(-c2ccc(OCc3nc4ccccc4s3)cc2)cc1 [Example 12, 4'-(Benzothiazolylmethoxyl)-4-diphenylacetic acid]
% Inhibition of LTB4 Synthesis ([1]; at 2.5 μM): Inactive

CN(O)C(=O)Cc1ccc(-c2ccc(OCc3nc4ccccc4s3)cc2)cc1 [Example 13, 4'-(Benzothiazolylmethoxy)-4-diphenyl-N-hydroxy-N-methyl-acetamide]
inhibition at 2.5 µM [1]: 98.9%

CC(C(=O)N(C)O)c1ccc(-c2ccc(OCc3nc4ccccc4n3C)cc2)cc1 (stereo not shown) [Example 23]
pIC50 [4]: 4.92 | % Inhibition of LTB4 ([4]; at 25 μM): 32% | inhibition at 2.5 µM [1]: 99%

COc1ccc2c(c1)c(CC(=O)O)c(C)n2C(=O)c1ccc(Cl)cc1 [Indomethacin]
% Inh LTB4 (LTB4): 12% | % Inh Cellular Influx [2]: 19% | ED30 ([2]; Rattus norvegicus, po, read-out: ED30 Fluid Exudation): 2.5 mg/kg

COc1ccc2cc([C@H](C)C(=O)O)ccc2c1 [Naproxen]
% Inh LTB4 (LTB4): 0% | ED50 TxB2 (TxB2): 0.24 mg/kg | % Inh Cellular Influx [2]: 29% | ED30 Fluid Exudation [2]: 3.9 mg/kg

C[C@H](C(=O)O)c1ccc2cc(OCc3ccc4ccccc4n3)ccc2c1.NC(CO)(CO)CO [Wy-50,295-A]
% Inh TxB2 (TxB2; 75 mg/kg p.o.): 0%
